The structures appear in SMILES notation. “Also recorded” adds a separate entry of the source. Read-outs that look alike come from different tables or passages of the source. Marks after values point to notes of the source that are not given here.

Data set [1] in a line: Population pharmacokinetic analysis of vancomycin (nonlinear mixed-effects modeling, Kinetica, one-compartment model).
Protocol: Data collected from patients’ medical records included age, total body weight, Sex, creatinine level, drug combination, and burn and continuous renal replacement therapy status (Burn-S, CRRT-S).
A total of 837 trough concentration (Ctrough) blood samples were collected 0.5 h before the next dose (after CRRT treatment for CRRT treatment patients), and 156 samples were collected at approach peak concentration (1 h after the peak concentration), both at the steady state (after the 6th dose) for most patients. All the samples (3–5 ml) were placed in 10 ml tubes containing coagulant and then centrifuged at 3000 rpm for 5 min. The supernatant serum was stored at − 80 °C for further testing.
The multilevel calibration was 0.4–100.0 μg/ml with calibration line slope consistently > 0.999. The RSD of intra-day and inter-day assays were less than 7%, and the recovery rate was 95.5–103.2%. Serum creatinine was detected by the creatine oxidase method with a biochemistry analyzer (Beckmann CX5).
As most of the trough concentrations of vancomycin was collected from sparse data at steady state, we fit the data with a one-compartment model to retrieve the pharmacokinetic parameters (CL and V).The covariate models and interindividual variability were expressed as following equation: βi=Ziβ+ηj, where βj denote as the parameter for the jth subject; Zj is amatrix depending on the covariates Zj. When no covariates are included, β is the (p*1) vector of the mean parameters; ηj is the interindividual variability that is assumed normal distribution with mean 0 and covariance matrix C (p*p).
For data set [2] the following is noted: cited from earlier work.
Description: We reasonably fitted the plots of concentrations versus time with one-compartment models for most serum samples (n = 837) collected during the trough period (156 samples were collected during the approach peak period).
Data set [3] can be described thus: Vancomycin serum concentrations (trough and approach peak) by HPLC. Particulars: n = 374 ICU patients. The data set is classed as in vivo, human. Here is the method: Ctrough means trough concentration that of blood samples collected 0.5 h before the next dose; Cappro peak means approach peak concentration that of the blood samples collected 1 h after completion of drug infusion.

Setting [4] is: basic model (no covariates), Chinese ICU adult patients, population mean (RSE%).
Where [5] appears, read: Christine, 102 patients, unstable renal function.
Where [6] appears, read: used as initial estimate, Chinese adult patients, ref Ji et al. [6].
The mark [7] stands for this setting: values reported by other studies in non-ICU patients.

Turning to `CN[C@H](CC(C)C)C(=O)N[C@H]1C(=O)N[C@@H](CC(N)=O)C(=O)N[C@H]2C(=O)N[C@H]3C(=O)N[C@H](C(=O)N[C@H](C(=O)O)c4cc(O)cc(O)c4-c4cc3ccc4O)[C@H](O)c3ccc(c(Cl)c3)Oc3cc2cc(c3O[C@@H]2O[C@H](CO)[C@@H](O)[C@H](O)[C@H]2O[C@H]2C[C@](C)(N)[C@H](O)[C@H](C)O2)Oc2ccc(cc2Cl)[C@H]1O` [vancomycin], the “CL (RSE%)” value in data set [1] (setting [4]) is on record as 2.63 (25.72) L/h; in data set [1] (final population model, Chinese ICU adult patients, one-compartment, EM algorithm, Kinetica 4.4.1, 294 patients for model building, serum HPLC, population mean) it was 3.16 (56.01) L/h. Also, the “V (RSE%)” value in data set [1] (setting [4]) is 55.32 (27.31) L. The “Final covariate equation of V” value in data set [1] (final model, Cr μmol/L, Age y, TBW kg) is on record as “V = 46.47 − 0.04*Cr − 0.07*Age + 0.16* TBW”. In addition, the “Final covariate equation of CL” value in data set [1] (final model, DA dopamine (1 not used, 2 used), Cr μmol/L, Burn-S (1 burn > 50%, 2 < 50%), TBW kg, CRRT-S (1 CRRT, 2 not)) is listed as “CL = 0.78 + 0.036*DA − 0.007*Cr − 0.43*Burn-S + 0.067*TBW + 0.41*CRRT-S; also recorded: CL =0.78 + 0.036*DA − 0.007*Cr -0.43* Burn-S + 0.067*TBW + 0.41* CRRT-S”. Besides, the “Final model of CL” value in data set [2] (setting [5]) is recorded as “CL(L·h^−1) = 2.97*(1 + 0.0205*(CLCr − CLCrMedian))”; in data set [2] (Llopis, 30 ICU patients), “CL(L·h^−1) = 0.034*CLCr(ml·min^−1) + 0.015* TBW”; in data set [2] (Natalia, 191 ICU patients), “CL(ml·min^−1·kg^−1) = 0.67*CLCr (ml·min^−1 ·kg^−1) + AGE^−0.24”; in data set [2] (Yasuhara, 190 adult Japanese, if CLCr < 85), “CL(L·h^−1) = 0.0487*CLCr(ml·min^−1),”. Also, the V in data set [2] (setting [5]) was 1.24 L/kg; in data set [2] (ICU patients with Cr > 88.4 μmol/l), 148.19 L; in data set [2] (ICU patients with Cr value below 88.4 μmol/l), 59.86 L; in data set [2] (setting [7]) it was 31.24 to 91.76 L. The “Final model of Vc (central compartment volume)” value in data set [2] (Llopis, 30 ICU patients) is “Vc (L) = 0.414* TBW”. For the same compound, the “Final model of Vp (peripheral compartment volume)” value in data set [2] (Llopis, 30 ICU patients) is recorded as “Vp (L) = 1.32*TBW”. Also, the “Final model of V” value in data set [2] (Natalia, 191 ICU patients) was “V (L·kg^−1) = 0.82*2.49^A, A = 0 or 1 if Cr ≤ 88.4 or Cr > 88.4 μmol/L”. Besides, the CL in data set [2] (Yasuhara, 190 adult Japanese, if CLCr > 85) is 3.51 L/h; in data set [2] (setting [7]), 2.89 to 5.93 L/h. Moreover, the “initial pharmacokinetic parameter CL” value in data set [2] (setting [6]) was 2.83 L/h. For the same compound, the “initial pharmacokinetic parameter V” value in data set [2] (setting [6]) is 52.14 L. Moreover, the “Ctrough (trough concentration)” value in data set [3] (blood samples collected 0.5 h before the next dose, steady state (after the 6th dose), regimens 0.5 g qd to 1 g q12h) stood at 16.3 ± 12.4. The “Cappro peak (approach peak concentration)” value in data set [3] (blood samples collected 1 h after completion of drug infusion, steady state) is 36.0 ± 19.4.

Values taken from PMC7846798, “Population pharmacokinetic modeling and clinical application of vancomycin in Chinese patients hospitalized in intensive care units” (Scientific Reports, 2021).
